The numbers were not newly measured in US20060243184A1, “Use of waste nitrogen from air separation units for blanketing cargo and ballast tanks” (Chevron U.S.A. Inc., priority 2003, published 2006), which cites them from elsewhere.

The conditions of the data set: @ 20° C.

The structures appear in SMILES notation.

Consider `CS` [Methylmercaptan], for which the “Water Solubility” value was 2.4%.
With `CCCS` [Propylmercaptan], the “Water Solubility” value is “Low”.
For `CCS` [Ethylmercaptan], the “Water Solubility” value is 1.3%.
